Assay results reported in patent US8686022B2, “7-(piperazine-1-ymethyl)-1H-indole-2-carboxylic acid (phenyl)-amide derivatives and allied compounds as p38 MAP kinase inhibitors for the treatment of respiratory diseases” (Boehringer Ingelheim International GmbH, priority 2008, dated 2014).
In brackets after ≈: the same amount, converted by molar mass.

Tests used:
[1] = Determining the solubility (saturated solution in McIlvaine buffer pH 7.4, UV spectroscopy); format: physicochemical; settings: pH 7.4, aqueous buffer, thermodynamic from solid, shaken 2 hours, 0.75 mg solid in 0.75 ml
In short: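 Excess solid (0.75 mg per 0.75 ml) shaken 2 h in McIlvaine buffer pH 7.4, then filtered through 0.45 μm PTFE membrane with first drops discarded. Dissolved amount measured by UV spectroscopy.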

p38 MAP-kinase = p38 MAP-kinase (Homo sapiens, UniProt Q16539); test: p38 MAP-kinase enzymatic assay (phosphorylation of GST-tagged ATF2, chemoluminescence); format: biochemical; settings: inhibitor concentration 1 μM; activated p38 MAP-kinase 1 nM; ATP 100 μM; read-out: p38 (% Inh @ 1 μM)
p38 MAP-kinase, sequence (Q16539 whole entry): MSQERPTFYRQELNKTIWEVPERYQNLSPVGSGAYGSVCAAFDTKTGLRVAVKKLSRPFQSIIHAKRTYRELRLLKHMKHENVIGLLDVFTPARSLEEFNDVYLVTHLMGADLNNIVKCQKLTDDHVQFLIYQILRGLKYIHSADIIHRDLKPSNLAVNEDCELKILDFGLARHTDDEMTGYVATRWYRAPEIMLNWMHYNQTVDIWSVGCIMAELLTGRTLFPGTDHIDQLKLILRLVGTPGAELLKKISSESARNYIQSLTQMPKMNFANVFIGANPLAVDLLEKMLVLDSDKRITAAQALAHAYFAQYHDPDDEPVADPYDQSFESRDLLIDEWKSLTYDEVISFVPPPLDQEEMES
In short: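 Activated p38 MAP-kinase (1 nM) preincubated 4 h at ambient temperature with 1 μM compound in HEPES pH 7, MgCl2, DTT, TWEEN20, then reacted 1 h with 10 nM GST-ATF2 and 100 μM ATP. Phospho-ATF2 detected by AlphaScreen-type bead luminescence; percent inhibition at 1 μM versus uninhibited and kinase-free controls.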

cytochrome P450 2C9 = cytochrome P450 2C9 (Homo sapiens, UniProt P11712); test: Determining the cyp2C9 activity (O-demethylation of [O-methyl-14C]-naproxen); format: in vitro ADME; settings: human recombinant cytochrome P450 2C9; 37° C.; <0.4 μM when inhibition >50% at lowest concentration; read-out: CYP 2C9 IC50
cytochrome P450 2C9, sequence (P11712 whole entry): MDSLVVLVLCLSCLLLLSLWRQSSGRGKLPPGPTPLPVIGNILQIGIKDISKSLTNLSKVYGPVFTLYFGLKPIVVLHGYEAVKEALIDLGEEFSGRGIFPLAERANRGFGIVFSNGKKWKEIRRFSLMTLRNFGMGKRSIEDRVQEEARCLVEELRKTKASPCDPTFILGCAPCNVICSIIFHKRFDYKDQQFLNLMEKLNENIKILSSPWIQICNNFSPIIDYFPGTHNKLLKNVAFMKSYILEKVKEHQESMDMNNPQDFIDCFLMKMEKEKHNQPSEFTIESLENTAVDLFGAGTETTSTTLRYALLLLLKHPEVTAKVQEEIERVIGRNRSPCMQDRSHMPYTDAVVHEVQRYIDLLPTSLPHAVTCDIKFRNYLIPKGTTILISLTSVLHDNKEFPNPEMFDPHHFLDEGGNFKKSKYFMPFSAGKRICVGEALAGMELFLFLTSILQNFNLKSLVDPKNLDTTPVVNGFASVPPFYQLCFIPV
In short: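 Recombinant CYP2C9 (40 pmol/ml) with 80 μM [O-methyl-14C]-naproxen in 0.1 M Tris, 5 mM MgCl2; test compound at 50, 10, 2 and 0.4 μM in duplicate. Started with 1 mM NADPH, stopped after 15 min with TCA; 14C-formaldehyde separated by solid-phase extraction and counted by scintillation. IC50 from least-squares fit.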

solubility at 2 h [1] [µg/mL] | inhibition at 1 µM (p38 MAP-kinase) [%] | IC50 (cytochrome P450 2C9) [nM] | SMILES
360 (≈ 551 µM) | 98.9 | 2420 | COc1c(NC(=O)c2cc3cccc(CN4CCN(C(=O)C5CCN(C)CC5)CC4)c3n2C)cc(C(C)(C)C)cc1NS(C)(=O)=O [Example 1, 1-methyl-7-[4-(1-methyl-piperidine-4-carbonyl)-piperazin-1-ylmethyl]-1H-indole-2-carboxylic acid(5-tert-butyl-3-methanesulphonylamino-2-methoxy-phenyl)-amide]
110 (≈ 168 µM) | 99.3 | 410 | CCOc1c(NC(=O)c2cc3cccc(CN4CCN(C(=O)[C@@H]5CCCN5C)CC4)c3n2C)cc(C(C)(C)C)cc1NS(C)(=O)=O [11(7), (S)-1-methyl-7-[4-(1-methyl-pyrrolidine-2-carbonyl)-piperazin-1-ylmethyl]-1H-indole-2-carboxylic acid-(5-tert-butyl-3-methanesulphonylamino-2-ethoxy-phenyl)-amide]
12 (≈ 18 µM) | 99.3 | 670 | COc1c(NC(=O)c2cc3cccc(CN4CCN(C(=O)[C@@H]5CCCN5C)CC4)c3n2C)cc(C(C)(C)C)cc1NS(=O)(=O)C1CC1 [13(1), (S)-1-methyl-7-[4-(1-methyl-pyrrolidine-2-carbonyl)-piperazin-1-ylmethyl]-1H-indole-2-carboxylic acid-(5-tert-butyl-3-cyclopropanesulphonylamino-2-methoxy-phenyl)-amide]
620 (≈ 971 µM) | 98.4 | 20400 | COc1c(NC(=O)c2cc3cccc(CN4CCN(C(=O)CN5CCCC5)CC4)c3n2C)cc(C(C)(C)C)cc1NS(C)(=O)=O [1(16), 1-methyl-7-[4-(2-pyrrolidin-1-yl-acetyl)-piperazin-1-ylmethyl]-1H-indole-2-carboxylic acid-(5-tert-butyl-3-methanesulphonylamino-2-methoxy-phenyl)-amide]
59 (≈ 94.4 µM) | 98.5 | 1340 | COc1c(NC(=O)c2cc3cccc(CN4CCN(C(=O)C5CN(C)C5)CC4)c3n2C)cc(C(C)(C)C)cc1NS(C)(=O)=O [1(2), 1-methyl-7-[4-(1-methyl-azetidine-3-carbonyl)-piperazin-1-ylmethyl]-1H-indole-2-carboxylic acid(5-tert-butyl-3-methanesulphonylamino-2-methoxy-phenyl)-amide]
160 (≈ 250 µM) | 99.1 | 1040 | COc1c(NC(=O)c2cc3cccc(CN4CCN(C(=O)[C@H]5CCCN5C)CC4)c3n2C)cc(C(C)(C)C)cc1NS(C)(=O)=O [1(3), (R)-1-methyl-7-[4-(1-methyl-pyrrolidine-2-carbonyl)-piperazin-1-ylmethyl]-1H-indole-2-carboxylic acid(5-tert-butyl-3-methanesulphonylamino-2-methoxy-phenyl)-amide]
42 (≈ 64.3 µM) | 99.1 | 1540 | COc1c(NC(=O)c2cc3cccc(CN4CCC(C(=O)N5CCN(C)CC5)CC4)c3n2C)cc(C(C)(C)C)cc1NS(C)(=O)=O [1(22), 1-methyl-7-[4-(4-methyl-piperazine-1-carbonyl)-piperidin-1-ylmethyl]-1H-indole-2-carboxylic acid-(5-tert-butyl-3-methanesulphonylamino-2-methoxy-phenyl)-amide]
< 1 | 99.1 | < 400 | COc1c(NC(=O)c2cc3cccc(CN4CCN(C(=O)C5CC5)CC4)c3n2C)cc(C(C)(C)C)cc1NS(C)(=O)=O [Vc, reference compound]
73 (≈ 111 µM) | 98.9 | 1210 | COc1c(NC(=O)c2cc3cccc(CN4CCN(C(=O)CN5CC[C@H](O)C5)CC4)c3n2C)cc(C(C)(C)C)cc1NS(C)(=O)=O [1(15), (S)-7-{4-[2-(3-hydroxy-pyrrolidin-1-yl)-acetyl]-piperazin-1-ylmethyl}-1-methyl-1H-indole-2-carboxylic acid-(5-tert-butyl-3-methanesulphonylamino-2-methoxy-phenyl)-amide]

Continued, compound first:

SMILES | solubility at 2 h [1] [µg/mL] | inhibition at 1 µM (p38 MAP-kinase) [%] | IC50 (cytochrome P450 2C9) [nM]
COc1c(NC(=O)c2cc3cccc(CC4CCN(C(=O)[C@@H]5CCCN5C)CC4)c3n2C)cc(C(C)(C)C)cc1NS(C)(=O)=O [1(7), (S)-1-methyl-7-[1-(1-methyl-pyrrolidine-2-carbonyl)-piperidin-4-ylmethyl]-1H-indole-2-carboxylic acid(5-tert-butyl-3-methanesulphonylamino-2-methoxy-phenyl)-amide] | 170 (≈ 267 µM) | 98.9 | 780
CCN(CC)C1CCN(Cc2cc(C(C)(C)C)cc(NC(=O)c3cc4cccc(CN5CCN(C(=O)[C@@H]6CCCN6C)CC5)c4n3C)c2OC)C1 (stereo partly drawn) [9(4), 1-methyl-7-[4-((2S)-1-methyl-pyrrolidine-2-carbonyl)-piperazin-1-ylmethyl]-1H-indole-2-carboxylic acid-[5-tert-butyl-3-(3-diethylamino-pyrrolidin-1-ylmethyl)-2-methoxy-phenyl]-amide] | 690 (≈ 986 µM) | 98 | 8110
CNC(=O)c1cc(C(C)(C)C)cc(NC(=O)c2cc3cccc(CN4CCN(C(=O)[C@@H]5CCCN5C)CC4)c3n2C)c1OC [10(3), (S)-1-methyl-7-[4-(1-methyl-pyrrolidine-2-carbonyl)-piperazin-1-ylmethyl]-1H-indole-2-carboxylic acid-(5-tert-butyl-2-methoxy-3-methylcarbamoyl-phenyl)-amide] | 590 (≈ 979 µM) | 99.3 | 1600
COc1c(NC(=O)c2cc3cccc(CC4CCCN(C(=O)[C@H]5CCCN5C)CC4)c3n2C)cc(C(C)(C)C)cc1NS(C)(=O)=O (stereo partly drawn) [1(20), 1-methyl-7-[1-((2R)-1-methyl-pyrrolidine-2-carbonyl)-azepan-4-ylmethyl]-1H-indole-2-carboxylic acid-(5-tert-butyl-3-methanesulphonylamino-2-methoxy-phenyl)-amide] | 124 (≈ 190 µM) | 99.1 | 2590
COc1c(NC(=O)c2cc3cccc(CC4CCCN(C(=O)[C@@H]5CCCN5C)CC4)c3n2C)cc(C(C)(C)C)cc1NS(C)(=O)=O (stereo partly drawn) [1(18), 1-methyl-7-[1-((2S)-1-methyl-pyrrolidine-2-carbonyl)-azepan-4-ylmethyl]-1H-indole-2-carboxylic acid-(5-tert-butyl-3-methanesulphonylamino-2-methoxy-phenyl)-amide] | 80 (≈ 123 µM) | 98 | 840
COc1c(NC(=O)c2cc3cccc(CN4CCC(C(=O)N5CC[C@@H](N(C)C)C5)CC4)c3n2C)cc(C(C)(C)C)cc1NS(C)(=O)=O [1(24), (R)-7-[4-(3-dimethylamino-pyrrolidine-1-carbonyl)-piperidin-1-ylmethyl]-1-methyl-1H-indole-2-carboxylic acid-(5-tert-butyl-3-methanesulphonylamino-2-methoxy-phenyl)-amide] | 36 (≈ 54 µM) | 54.2 | 2470
COc1c(CS(C)(=O)=O)cc(C(C)(C)C)cc1NC(=O)c1cc2cccc(CN3CCN(C(=O)[C@@H]4CCCN4C)CC3)c2n1C [11(5), (S)-1-methyl-7-[4-(1-methyl-pyrrolidine-2-carbonyl)-piperazin-1-ylmethyl]-1H-indole-2-carboxylic acid-(5-tert-butyl-3-methanesulphonylmethyl-2-methoxy-phenyl)-amide] | 53 (≈ 83.1 µM) | 99.6 | 2340
